Calls of active or inactive are those of the source. The rule behind the calls is not given here.
What was measured:
HaCaT [1] = test: Induction of apoptosis in human HaCaT cells transfected with shAKT2 assessed as late apoptotic cells at 9 uM by flow cytometry analysis (reference value: 2.90%); format: functional
HaCaT [2] = test: Induction of apoptosis in human HaCaT cells transfected with shAKT1 assessed as viable cells at 9 uM by flow cytometry analysis (reference value: 77.12%); format: functional; details: read-out: Activity
Bel-7402 = test: Antiproliferative activity against human Bel-7402 cells assessed as inhibition of cell growth incubated for 72 hrs by SRB method; format: functional, cell-based; details: Bel-7402, 72 h
HaCaT [3] = test: Induction of apoptosis in human HaCaT cells transfected with shAKT1 assessed as early apoptotic cells at 9 uM by flow cytometry analysis (reference value: 0.54%); format: functional
HaCaT [4] = test: Induction of apoptosis in human HaCaT cells transfected with shAKT3 assessed as viable cells at 9 uM by flow cytometry analysis (reference value: 78.17%); format: functional; details: read-out: Activity
SMMC-7721 = test: Antiproliferative activity against human SMMC-7721 cells assessed as inhibition of cell growth incubated for 72 hrs by SRB method; format: functional, cell-based; details: SMMC-7721, 72 h
SK-OV-3 = test: Antiproliferative activity against human SK-OV-3 cells assessed as inhibition of cell growth incubated for 72 hrs by SRB method; format: functional, cell-based; details: SK-OV-3, 72 h
[5] = Antiproliferative activity against human 95-D cells assessed as inhibition of cell growth incubated for 72 hrs by SRB method; format: functional, cell-based
HaCaT [6] = test: Induction of apoptosis in human HaCaT cells transfected with shAKT2 assessed as early apoptotic cells at 9 uM by flow cytometry analysis (reference value: 0.38%); format: functional
U-87 MG = test: Antiproliferative activity against human U-87MG cells assessed as inhibition of cell growth incubated for 72 hrs by SRB method; format: functional, cell-based, U-87MG ATCC
HaCaT [7] = test: Induction of apoptosis in human HaCaT cells assessed as viable cells at 9 uM by flow cytometry analysis (reference value: 79.16%); format: functional; details: read-out: Activity
A549 = test: Antiproliferative activity against human A549 cells assessed as inhibition of cell growth incubated for 72 hrs by SRB method; format: functional, cell-based; details: A549, 72 h
HaCaT [8] = test: Induction of apoptosis in human HaCaT cells transfected with shAKT1 assessed as necrotic cells at 9 uM by flow cytometry analysis (reference value: 3.82%); format: functional
786-0 [9] = test: Antiproliferative activity against human 786-0 cells assessed as inhibition of cell growth incubated for 72 hrs by SRB method; format: functional, cell-based; details: 786-0, 72 h
HaCaT [10] = test: Induction of apoptosis in human HaCaT cells transfected with shAKT2 assessed as late apoptotic cells at 9 uM by flow cytometry analysis (reference value: 16.77%); format: functional
HaCaT [11] = test: Induction of apoptosis in human HaCaT cells assessed as necrotic cells at 9 uM by flow cytometry analysis (reference value: 3.17%); format: functional
OVCAR-8 = test: Antiproliferative activity against human OVCAR-8 cells assessed as inhibition of cell growth incubated for 72 hrs by SRB method; format: functional, cell-based; details: OVCAR-8, 72 h
U-251 = test: Antiproliferative activity against human U251 cells assessed as inhibition of cell growth incubated for 72 hrs by SRB method; format: functional, cell-based; details: U-251, 72 h
KHOS/NP [12] = test: Antitumor activity against human KHOS cells xenografted in dosed BALB/c nude mouse assessed as tumor growth inhibition at 50 mg/kg, ig administered once daily for 22 days; format: functional; details: po, 528 h, time 22 day, read-out: TGI
OS-RC-2 = test: Antiproliferative activity against human OS-RC-2 cells assessed as inhibition of cell growth incubated for 72 hrs by SRB method; format: functional, cell-based; details: OS-RC-2, 72 h
HaCaT [13] = test: Induction of apoptosis in human HaCaT cells transfected with shAKT1 assessed as late apoptotic cells at 9 uM by flow cytometry analysis (reference value: 18.52%); format: functional
MDA-MB-231 = test: Antiproliferative activity against human MDA-MB-231 cells assessed as inhibition of cell growth incubated for 72 hrs by SRB method; format: functional, cell-based; details: MDA-MB-231, 72 h
769-P = test: Antiproliferative activity against human 769-P cells assessed as inhibition of cell growth incubated for 72 hrs by SRB method; format: functional, cell-based
HaCaT [14] = test: Antiproliferative activity against human HaCaT cells assessed as inhibition of cell growth incubated for 72 hrs by SRB assay; format: cell-based
HaCaT [15] = test: Induction of apoptosis in human HaCaT cells transfected with shAKT2 assessed as decrease in cleaved caspase 3 level by Western blot analysis; format: functional, cell-based
KHOS/NP [16] = test: Antiproliferative activity against human KHOS cells assessed as inhibition of cell growth incubated for 72 hrs by SRB method; format: functional, cell-based
HepG2 = test: Antiproliferative activity against human HepG2 cells assessed as inhibition of cell growth incubated for 72 hrs by SRB method; format: functional, cell-based; details: HepG2, 72 h
HaCaT [17] = test: Induction of apoptosis in human HaCaT cells transfected with shAKT2 assessed as viable cells at 9 uM by flow cytometry analysis (reference value: 79.95%); format: functional; details: read-out: Activity
PC-3 = test: Antiproliferative activity against human PC3 cells assessed as inhibition of cell growth incubated for 72 hrs by SRB method; format: functional, cell-based; details: PC-3, 72 h
HaCaT [18] = test: Induction of apoptosis in human HaCaT cells assessed as late apoptotic cells at 9 uM by flow cytometry analysis (reference value: 17.13%); format: functional
HaCaT [19] = test: Induction of apoptosis in human HaCaT cells transfected with shAKT3 assessed as necrotic cells at 9 uM by flow cytometry analysis (reference value: 3.84%); format: functional
786-0 [20] = test: Antitumor activity against human 786-0 cells xenografted in dosed BALB/c nude mouse assessed as tumor growth inhibition at 50 mg/kg, ig administered once daily for 22 days; format: functional; details: 786-0, po, 528 h, time 22 day, read-out: TGI
HaCaT [21] = test: Induction of apoptosis in human HaCaT cells transfected with shAKT3 assessed as late apoptotic cells at 9 uM by flow cytometry analysis (reference value: 17.55%); format: functional
LNCaP = test: Antiproliferative activity against human LNCaP cells assessed as inhibition of cell growth incubated for 72 hrs by SRB method; format: functional, cell-based
HT-29 = test: Antiproliferative activity against human HT-29 cells assessed as inhibition of cell growth incubated for 72 hrs by SRB method; format: functional, cell-based; details: HT-29, 72 h
HaCaT [22] = test: Induction of apoptosis in human HaCaT cells transfected with shAKT3 assessed as early apoptotic cells at 9 uM by flow cytometry analysis (reference value: 0.44%); format: functional
HaCaT [23] = test: Induction of apoptosis in human HaCaT cells assessed as early apoptotic cells at 9 uM by flow cytometry analysis (reference value: 0.54%); format: functional
NCI-H1975 = test: Antiproliferative activity against human NCI-H1975 cells assessed as inhibition of cell growth incubated for 72 hrs by SRB method; format: functional, cell-based; details: NCI-H1975, 72 h

NC1(C(=O)N[C@@H](CCO)c2ccc(Cl)cc2)CCN(c2nc[nH]c3nccc2-3)CC1 [CAPIVASERTIB]
Activity (HaCaT [1]): 3.15%
viability at 9 µM (HaCaT [2]): 44.7%
IC50 (Bel-7402): 49.6 µM
Activity (HaCaT [3]): 1.44%
viability at 9 µM (HaCaT [4]): 46%
IC50 (SMMC-7721): 84.1 µM
IC50 (SK-OV-3): 6.32 µM
IC50 [5]: 2.32 µM
Activity (HaCaT [6]): 0.79%
IC50 (U-87 MG): 50.6 µM
viability at 9 µM (HaCaT [7]): 44%
IC50 (A549): 23.7 µM
Activity (HaCaT [8]): 5.98%
IC50 (786-0 [9]): 23.3 µM
Activity (HaCaT [10]): 25.71%
Activity (HaCaT [11]): 7.13%
IC50 (OVCAR-8): 4.48 µM
IC50 (U-251): 14.2 µM
inhibition in vivo at 50 mg/kg (KHOS/NP [12]): 33.9%
IC50 (OS-RC-2): 53.4 µM
Activity (HaCaT [13]): 47.84%
IC50 (MDA-MB-231): 60.5 µM
IC50 (769-P): 10.8 µM
IC50 (HaCaT [14]): 4.2 µM
Activity (HaCaT [15]): Active
IC50 (KHOS/NP [16]): 40.4 µM
IC50 (HepG2): 6.7 µM
viability at 9 µM (HaCaT [17]): 70.3%
IC50 (PC-3): 82.6 µM
Activity (HaCaT [18]): 47.55%
Activity (HaCaT [19]): 6.23%
inhibition in vivo at 50 mg/kg (786-0 [20]): 47.1%
Activity (HaCaT [21]): 46.52%
IC50 (LNCaP): 0.46 µM
IC50 (HT-29): 36.9 µM
Activity (HaCaT [22]): 1.27%
Activity (HaCaT [23]): 1.34%
IC50 (NCI-H1975): 8.23 µM
